Laboratory results as given in ChEMBL document CHEMBL1148870, “Novel inhibitors of VEGF receptors-1 and -2 based on azole-5-carboxamide templates” (Bioorg Med Chem Lett, 2007).

Experiments:
[1] = target: Receptor-type tyrosine-protein kinase FLT3 (Homo sapiens) (UniProt P36888); assay: Inhibition of Flt3 at 10 uM; set-up: scale not given: the % may be the effect or the level left
[2] = species on record: Homo sapiens; assay: Inhibition of InR at 10 uM; set-up: scale not given: the % may be the effect or the level left
[3] = target: Receptor tyrosine-protein kinase erbB-2 (Homo sapiens) (UniProt P04626); assay: Inhibition of ErbB2/Her2 at 10 uM; set-up: scale not given: the % may be the effect or the level left
[4] = target: Vascular endothelial growth factor receptor 1 (Homo sapiens, UniProt P17948); assay: Inhibition of VEGFR1 assessed as inhibition of phosphorylation in presence of 2 uM ATP by HTRF assay; format: functional
[5] = target: Cyclin-dependent kinase 2 (Homo sapiens) (UniProt P24941); assay: Inhibition of Cdk2 at 10 uM; set-up: scale not given: the % may be the effect or the level left
[6] = target: Insulin-like growth factor 1 receptor (Homo sapiens) (UniProt P08069); assay: Inhibition of IGF1R at 10 uM; set-up: scale not given: the % may be the effect or the level left
[7] = target: T1, Vascular endothelial growth factor receptor 2 (Homo sapiens, UniProt P35968); assay: Inhibition of VEGFR2 assessed as inhibition of phosphorylation in presence of 2 uM ATP by HTRF assay; format: functional
[8] = target: Fibroblast growth factor receptor 1 (Homo sapiens) (UniProt P11362); assay: Inhibition of FGFR1 at 10 uM; set-up: scale not given: the % may be the effect or the level left
[9] = species on record: Homo sapiens; assay: Inhibition of bcr-Abl at 10 uM; set-up: scale not given: the % may be the effect or the level left
[10] = target: Epidermal growth factor receptor (Homo sapiens) (UniProt P00533); assay: Inhibition of ErbB1 at 10 uM; set-up: scale not given: the % may be the effect or the level left
[11] = target: RAF proto-oncogene serine/threonine-protein kinase (Homo sapiens) (UniProt P04049); assay: Inhibition of Raf1 at 10 uM; set-up: scale not given: the % may be the effect or the level left
[12] = target: Glycogen synthase kinase-3 beta (Homo sapiens) (UniProt P49841); assay: Inhibition of GSK3-beta at 10 uM; set-up: scale not given: the % may be the effect or the level left
[13] = target: T1, Vascular endothelial growth factor receptor 2; assay: Inhibition of VEGFR2 assessed as inhibition of phosphorylation in human 293 cells by cell-based ELISA; format: functional, HEK293
[14] = target: RAC-alpha serine/threonine-protein kinase (Homo sapiens) (UniProt P31749); assay: Inhibition of PKB/Akt at 10 uM; set-up: scale not given: the % may be the effect or the level left
[15] = target: Hepatocyte growth factor receptor (Homo sapiens) (UniProt P08581); assay: Inhibition of cMet at 10 uM; set-up: scale not given: the % may be the effect or the level left
[16] = species on record: Homo sapiens; assay: Inhibition of PKA at 10 uM; set-up: scale not given: the % may be the effect or the level left
[17] = species on record: Homo sapiens; assay: Inhibition of Cdk1 at 10 uM; set-up: scale not given: the % may be the effect or the level left
[18] = target: Vascular endothelial growth factor receptor 3 (Homo sapiens) (UniProt P35916); assay: Inhibition of Flt4 at 10 uM; set-up: scale not given: the % may be the effect or the level left

Chain of Epidermal growth factor receptor (Homo sapiens) (P00533 whole entry): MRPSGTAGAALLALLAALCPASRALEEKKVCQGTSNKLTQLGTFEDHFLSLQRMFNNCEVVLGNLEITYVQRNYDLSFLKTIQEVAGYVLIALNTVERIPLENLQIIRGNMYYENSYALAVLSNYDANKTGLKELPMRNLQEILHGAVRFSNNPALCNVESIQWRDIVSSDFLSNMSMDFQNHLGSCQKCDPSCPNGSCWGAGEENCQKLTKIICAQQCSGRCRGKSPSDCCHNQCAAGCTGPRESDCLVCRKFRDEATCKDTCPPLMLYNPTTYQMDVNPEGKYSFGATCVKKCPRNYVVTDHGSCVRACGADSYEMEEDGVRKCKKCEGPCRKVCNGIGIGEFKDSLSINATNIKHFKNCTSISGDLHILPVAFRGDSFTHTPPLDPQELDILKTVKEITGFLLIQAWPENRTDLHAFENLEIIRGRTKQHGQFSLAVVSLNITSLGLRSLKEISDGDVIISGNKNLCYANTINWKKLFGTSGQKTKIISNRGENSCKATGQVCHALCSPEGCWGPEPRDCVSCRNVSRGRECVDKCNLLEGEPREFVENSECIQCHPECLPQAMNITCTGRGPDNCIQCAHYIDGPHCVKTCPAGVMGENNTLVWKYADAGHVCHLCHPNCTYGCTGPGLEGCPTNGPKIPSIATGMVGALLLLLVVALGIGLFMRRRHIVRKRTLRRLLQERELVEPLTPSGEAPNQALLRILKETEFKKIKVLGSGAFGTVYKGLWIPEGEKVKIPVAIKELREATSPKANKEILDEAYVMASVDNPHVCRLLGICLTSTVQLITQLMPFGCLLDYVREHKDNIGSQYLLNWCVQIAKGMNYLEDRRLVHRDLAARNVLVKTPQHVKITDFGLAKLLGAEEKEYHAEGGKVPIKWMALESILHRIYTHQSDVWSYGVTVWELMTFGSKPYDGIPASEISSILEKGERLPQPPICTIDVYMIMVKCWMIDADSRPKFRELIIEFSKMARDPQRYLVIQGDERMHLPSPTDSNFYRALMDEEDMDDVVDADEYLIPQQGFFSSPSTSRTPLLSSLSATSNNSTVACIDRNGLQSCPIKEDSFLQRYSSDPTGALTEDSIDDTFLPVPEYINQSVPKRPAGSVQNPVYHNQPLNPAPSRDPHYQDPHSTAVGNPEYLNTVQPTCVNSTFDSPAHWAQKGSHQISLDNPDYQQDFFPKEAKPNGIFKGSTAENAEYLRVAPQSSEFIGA
Chain of RAF proto-oncogene serine/threonine-protein kinase (Homo sapiens) (P04049 whole entry): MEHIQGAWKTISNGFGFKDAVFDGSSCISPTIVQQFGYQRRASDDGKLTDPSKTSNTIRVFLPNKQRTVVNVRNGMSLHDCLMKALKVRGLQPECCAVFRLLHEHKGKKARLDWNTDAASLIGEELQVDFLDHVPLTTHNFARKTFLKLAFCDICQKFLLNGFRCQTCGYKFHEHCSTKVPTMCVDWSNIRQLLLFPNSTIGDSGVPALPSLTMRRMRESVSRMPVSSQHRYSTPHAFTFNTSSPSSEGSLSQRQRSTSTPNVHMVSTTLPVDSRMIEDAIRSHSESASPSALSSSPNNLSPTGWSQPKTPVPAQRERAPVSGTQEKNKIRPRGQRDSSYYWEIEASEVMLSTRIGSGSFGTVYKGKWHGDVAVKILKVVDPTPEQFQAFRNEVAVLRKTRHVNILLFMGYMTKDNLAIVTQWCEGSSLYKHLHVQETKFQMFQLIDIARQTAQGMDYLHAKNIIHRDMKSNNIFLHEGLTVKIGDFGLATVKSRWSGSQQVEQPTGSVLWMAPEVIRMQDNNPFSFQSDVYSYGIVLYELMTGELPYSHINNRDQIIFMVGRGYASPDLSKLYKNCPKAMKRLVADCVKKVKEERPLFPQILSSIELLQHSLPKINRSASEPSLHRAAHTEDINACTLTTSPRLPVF
Chain of Insulin-like growth factor 1 receptor (Homo sapiens) (P08069 31-736 limits assumed): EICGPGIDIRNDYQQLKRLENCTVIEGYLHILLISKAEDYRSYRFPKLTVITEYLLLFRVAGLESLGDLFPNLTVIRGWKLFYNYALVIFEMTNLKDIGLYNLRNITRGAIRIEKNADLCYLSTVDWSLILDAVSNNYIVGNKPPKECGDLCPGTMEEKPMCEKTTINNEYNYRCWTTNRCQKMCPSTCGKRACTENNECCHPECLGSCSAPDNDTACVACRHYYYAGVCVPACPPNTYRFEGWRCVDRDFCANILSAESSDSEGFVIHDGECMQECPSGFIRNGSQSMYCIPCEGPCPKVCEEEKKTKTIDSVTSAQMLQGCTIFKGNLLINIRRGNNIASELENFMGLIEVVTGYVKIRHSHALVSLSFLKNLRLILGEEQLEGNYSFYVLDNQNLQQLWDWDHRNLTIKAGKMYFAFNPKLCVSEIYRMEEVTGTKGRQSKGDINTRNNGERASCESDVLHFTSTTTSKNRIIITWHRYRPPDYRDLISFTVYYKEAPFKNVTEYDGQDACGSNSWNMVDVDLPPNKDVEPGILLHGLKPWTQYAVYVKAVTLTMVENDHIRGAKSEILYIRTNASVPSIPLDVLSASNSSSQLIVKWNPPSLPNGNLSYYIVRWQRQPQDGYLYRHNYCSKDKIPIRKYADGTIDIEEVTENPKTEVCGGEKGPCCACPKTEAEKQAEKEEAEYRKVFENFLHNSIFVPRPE
Chain of Insulin-like growth factor 1 receptor (Homo sapiens) (P08069 741-1367 limits assumed): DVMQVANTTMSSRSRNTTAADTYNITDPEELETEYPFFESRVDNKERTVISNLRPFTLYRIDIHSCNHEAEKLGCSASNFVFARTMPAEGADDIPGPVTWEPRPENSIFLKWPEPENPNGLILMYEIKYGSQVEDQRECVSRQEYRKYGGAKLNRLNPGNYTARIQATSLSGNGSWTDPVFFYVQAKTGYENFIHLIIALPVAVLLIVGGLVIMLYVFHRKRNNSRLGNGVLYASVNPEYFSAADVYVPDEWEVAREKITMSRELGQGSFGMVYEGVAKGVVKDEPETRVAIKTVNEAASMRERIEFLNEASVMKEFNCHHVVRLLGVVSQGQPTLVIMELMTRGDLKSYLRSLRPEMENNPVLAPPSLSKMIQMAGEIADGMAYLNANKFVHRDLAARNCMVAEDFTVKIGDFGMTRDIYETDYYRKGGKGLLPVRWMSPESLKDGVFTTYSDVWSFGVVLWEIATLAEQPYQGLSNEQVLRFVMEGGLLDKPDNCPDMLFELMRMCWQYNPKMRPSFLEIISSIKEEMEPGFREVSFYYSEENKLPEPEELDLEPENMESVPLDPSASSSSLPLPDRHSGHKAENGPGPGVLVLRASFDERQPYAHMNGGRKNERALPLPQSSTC
Chain of Glycogen synthase kinase-3 beta (Homo sapiens) (P49841 whole entry, looked up): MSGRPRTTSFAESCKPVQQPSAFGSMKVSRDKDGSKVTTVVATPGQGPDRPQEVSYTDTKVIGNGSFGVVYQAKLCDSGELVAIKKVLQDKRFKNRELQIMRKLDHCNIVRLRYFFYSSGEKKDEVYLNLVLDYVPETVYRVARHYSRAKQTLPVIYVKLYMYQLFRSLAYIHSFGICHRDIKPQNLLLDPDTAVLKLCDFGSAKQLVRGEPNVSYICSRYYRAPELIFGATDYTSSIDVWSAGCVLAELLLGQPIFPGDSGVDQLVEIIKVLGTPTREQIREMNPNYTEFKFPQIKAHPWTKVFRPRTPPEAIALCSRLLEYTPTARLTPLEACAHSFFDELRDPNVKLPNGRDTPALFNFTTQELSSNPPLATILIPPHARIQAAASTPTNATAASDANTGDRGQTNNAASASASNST
Chain of Fibroblast growth factor receptor 1 (Homo sapiens) (P11362 22-822 limits assumed): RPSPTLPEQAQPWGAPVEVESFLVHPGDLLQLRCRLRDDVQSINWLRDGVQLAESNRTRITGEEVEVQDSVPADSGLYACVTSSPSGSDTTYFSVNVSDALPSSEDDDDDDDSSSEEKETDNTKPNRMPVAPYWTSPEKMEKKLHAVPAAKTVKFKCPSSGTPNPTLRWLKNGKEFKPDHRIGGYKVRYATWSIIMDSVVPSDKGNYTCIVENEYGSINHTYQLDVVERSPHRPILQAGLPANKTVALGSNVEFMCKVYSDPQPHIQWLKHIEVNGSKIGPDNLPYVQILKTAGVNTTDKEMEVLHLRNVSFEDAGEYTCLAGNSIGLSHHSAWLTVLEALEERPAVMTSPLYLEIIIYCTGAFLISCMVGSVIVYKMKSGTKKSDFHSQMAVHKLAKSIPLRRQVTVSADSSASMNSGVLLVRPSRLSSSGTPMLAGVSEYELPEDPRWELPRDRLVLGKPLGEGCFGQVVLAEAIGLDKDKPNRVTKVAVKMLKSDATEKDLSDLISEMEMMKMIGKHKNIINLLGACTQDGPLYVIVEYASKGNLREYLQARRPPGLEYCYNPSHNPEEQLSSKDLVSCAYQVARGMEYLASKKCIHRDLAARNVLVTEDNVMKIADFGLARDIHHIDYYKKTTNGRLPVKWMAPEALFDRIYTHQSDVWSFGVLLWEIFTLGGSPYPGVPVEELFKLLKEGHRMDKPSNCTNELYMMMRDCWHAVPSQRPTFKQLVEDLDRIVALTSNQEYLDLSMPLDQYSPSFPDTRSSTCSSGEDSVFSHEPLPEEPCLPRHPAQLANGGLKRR
Chain of RAC-alpha serine/threonine-protein kinase (Homo sapiens) (P31749 whole entry): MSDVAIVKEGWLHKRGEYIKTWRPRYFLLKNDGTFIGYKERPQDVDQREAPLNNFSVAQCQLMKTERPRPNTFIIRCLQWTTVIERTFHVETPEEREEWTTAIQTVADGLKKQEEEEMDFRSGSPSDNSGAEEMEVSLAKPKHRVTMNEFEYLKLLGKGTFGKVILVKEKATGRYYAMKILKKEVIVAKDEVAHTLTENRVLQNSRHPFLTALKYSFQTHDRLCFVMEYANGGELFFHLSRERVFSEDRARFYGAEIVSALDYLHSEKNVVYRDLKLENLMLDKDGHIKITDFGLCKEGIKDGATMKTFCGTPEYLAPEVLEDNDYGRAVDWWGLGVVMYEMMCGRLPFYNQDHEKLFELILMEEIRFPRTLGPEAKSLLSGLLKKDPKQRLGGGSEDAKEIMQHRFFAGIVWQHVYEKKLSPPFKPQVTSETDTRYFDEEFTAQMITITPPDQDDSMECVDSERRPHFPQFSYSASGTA

| SMILES | Activity [1] [%] | Activity [2] [%] | Activity [3] [%] | IC50 [4] [nM] | Activity [5] [%] | Activity [6] [%] | IC50 [7] [nM] | Activity [8] [%] | Activity [9] [%] | Activity [10] [%] | Activity [11] [%] | Activity [12] [%] | IC50 [13] [nM] | Activity [14] [%] | Activity [15] [%] | Activity [16] [%] | Activity [17] [%] | Activity [18] [%] |
| --- | --- | --- | --- | --- | --- | --- | --- | --- | --- | --- | --- | --- | --- | --- | --- | --- | --- | --- |
| O=C(Nc1ccc(Cl)cc1)c1ccnn1CCc1cccnc1 | > 30 | > 30 | > 30 | > 10000 | > 30 | > 30 | > 10000 | > 30 | > 30 | < 30 | > 30 | > 30 | > 10000 | > 30 | > 30 | > 30 | > 30 | > 30 |
| O=C(Nc1ccc(Cl)cc1)c1ccnn1CCc1ccccn1 | > 30 | > 30 | > 30 | > 10000 | > 30 | > 30 | > 10000 | > 30 | > 30 | < 30 | > 30 | > 30 | > 10000 | > 30 | > 30 | > 30 | > 30 | > 30 |
| O=C(Nc1cnc2ccccc2c1)c1ccnn1CCc1ccncc1 | > 30 | > 30 | > 30 | 380 | > 30 | > 30 | 180 | > 30 | > 30 | < 30 | > 30 | > 30 | 1220 | > 30 | > 30 | > 30 | > 30 | > 30 |
| O=C(Nc1ccc(Cl)cc1)c1ccnn1CCc1ccc(F)c(F)c1 | > 30 | > 30 | > 30 | > 10000 | > 30 | > 30 | > 10000 | > 30 | > 30 | < 30 | > 30 | > 30 | > 10000 | > 30 | > 30 | > 30 | > 30 | > 30 |
| COc1ccc(CCn2nccc2C(=O)Nc2ccc(Cl)cc2)cc1OC | > 30 | > 30 | > 30 | > 10000 | > 30 | > 30 | > 10000 | > 30 | > 30 | < 30 | > 30 | > 30 | > 10000 | > 30 | > 30 | > 30 | > 30 | > 30 |

The next lines start with the values.

| Activity [1] [%] | Activity [2] [%] | Activity [3] [%] | IC50 [4] [nM] | Activity [5] [%] | Activity [6] [%] | IC50 [7] [nM] | Activity [8] [%] | Activity [9] [%] | Activity [10] [%] | Activity [11] [%] | Activity [12] [%] | IC50 [13] [nM] | Activity [14] [%] | Activity [15] [%] | Activity [16] [%] | Activity [17] [%] | Activity [18] [%] | SMILES |
| --- | --- | --- | --- | --- | --- | --- | --- | --- | --- | --- | --- | --- | --- | --- | --- | --- | --- | --- |
| > 30 | > 30 | > 30 | > 10000 | > 30 | > 30 | > 10000 | > 30 | > 30 | < 30 | > 30 | > 30 | > 10000 | > 30 | > 30 | > 30 | > 30 | > 30 | CC(C)(C)c1ccc(NC(=O)c2nnnn2CCc2ccncc2)cc1 |
| > 30 | > 30 | > 30 | > 10000 | > 30 | > 30 | > 10000 | > 30 | > 30 | < 30 | > 30 | > 30 | > 10000 | > 30 | > 30 | > 30 | > 30 | > 30 | O=C(Nc1ccc(C(F)(F)F)c(Cl)c1)c1nnnn1CCc1ccncc1 |
| > 30 | > 30 | > 30 | 3860 | > 30 | > 30 | 940 | > 30 | > 30 | < 30 | > 30 | > 30 | 2250 | > 30 | > 30 | > 30 | > 30 | > 30 | CC(C)(C)c1ccc(NC(=O)c2nccn2CCc2ccncc2)cc1 |
| > 30 | > 30 | > 30 | 450 | > 30 | > 30 | 370 | > 30 | > 30 | < 30 | > 30 | > 30 | 280 | > 30 | > 30 | > 30 | > 30 | > 30 | O=C(Nc1cccc(OC(F)(F)F)c1)c1ccnn1CCc1ccncc1 |
| > 30 | > 30 | > 30 | > 10000 | > 30 | > 30 | > 10000 | > 30 | > 30 | < 30 | > 30 | > 30 | > 10000 | > 30 | > 30 | > 30 | > 30 | > 30 | O=C(Nc1ccc(C(F)(F)F)c(Cl)c1)c1nc2ccccc2n1CCc1ccncc1 |
| > 30 | > 30 | > 30 | 790 | > 30 | > 30 | 470 | > 30 | > 30 | < 30 | > 30 | > 30 | 1660 | > 30 | > 30 | > 30 | > 30 | > 30 | O=C(Nc1ccc(C(F)(F)F)cc1)c1nccn1CCc1ccncc1 |
| > 30 | > 30 | > 30 | > 10000 | > 30 | > 30 | > 10000 | > 30 | > 30 | < 30 | > 30 | > 30 | > 10000 | > 30 | > 30 | > 30 | > 30 | > 30 | O=C(Nc1ccc(Cl)cc1)c1cc2ccccc2n1CCc1ccncc1 |
| > 30 | > 30 | > 30 | 1220 | > 30 | > 30 | 780 | > 30 | > 30 | < 30 | > 30 | > 30 | 2540 | > 30 | > 30 | > 30 | > 30 | > 30 | Cc1cc(C(=O)Nc2ccc(Cl)cc2)n(CCc2ccncc2)n1 |
